# Patent publication US12310975B2, “Modulators of BCL6 proteolysis and associated methods of use” (Arvinas Operations, Inc., priority 2019, dated 2025)
# Target: BCL6 (Homo sapiens (Human), UniProt P41182)
# Assay: Immunofluorescence high content imaging of BCL6 degradation in T47D cells
# Type: cell-based
# Settings: not given
# Summary of the method: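 Read-out is BCL6 immunofluorescence quantified by high-content imaging (10×, 4 fields per well) of T47D breast cancer cells. Cells were exposed for 3 days to degrader in an 11-point, 3-fold serial dilution reaching a final top concentration of 0.1 or 1 μM.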
row,Structure (SMILES),IC50 [nM]
1,"CNC(=O)CCC1Oc2cc(Nc3nc(N4CCN(C(C)(C)C5CCN(c6ccc7c(c6)C(=O)N(C6CCC(=O)NC6=O)C7=O)CC5)CC4)ncc3Cl)ccc2N(C)C1=O (centres unmarked) [compound 287, 3-[7-({5-chloro-2-[4-(2-{1-[2-(2,6-dioxopiperidin-3-yl)-1,3-dioxo-2,3-dihydro-1H-isoindol-5-yl]piperidin-4-yl}propan-2-yl)piperazin-1-yl]pyrimidin-4-yl}amino)-4-methyl-3-oxo-3,4-dihydro-2H-1,4-benzoxazin-2-yl]-N-methylpropanamide]",≥ 100
2,"CC(=O)COc1cc2cc(Nc3nc(N4CCN(C(C)(C)C5CCN(c6ccc7c(c6)C(=O)N(C6CCC(=O)NC6=O)C7=O)CC5)CC4)ncc3Cl)ccc2n(C)c1=O (centres unmarked) [compound 257, 5-(4-(2-(4-(5-chloro-4-((1-methyl-2-oxo-3-(2-oxopropoxy)-1,2-dihydroquinolin-6-yl)amino)pyrimidin-2-yl)piperazin-1-yl)propan-2-yl)piperidin-1-yl)-2-(2,6-dioxopiperidin-3-yl)isoindoline-1,3-dione]",10 to 50
3,"CNC(=O)COc1cc2cc(Nc3nc(N4CCC(CN5CC6(C5)CN(c5ccc7c(c5)C(=O)N(C5CCC(=O)NC5=O)C7=O)C6)CC4)ncc3Cl)ccc2n(C)c1=O (centres unmarked) [compound 248, 2-((6-((5-chloro-2-(4-((6-(2-(2,6-dioxopiperidin-3-yl)-1,3-dioxoisoindolin-5-yl)-2,6-diazaspiro[3.3]heptan-2-yl)methyl)piperidin-1-yl)pyrimidin-4-yl)amino)-1-methyl-2-oxo-1,2-dihydroquinolin-3-yl)oxy)-N-methylacetamide]",≥ 100

# Results, then the compound that gave them:
row,IC50 [nM],Structure (SMILES)
1,10 to 50,"CCn1c(=O)c(OCC(=O)NC)cc2cc(Nc3nc(N4CCN(CC5CN(C6CN(c7ccc8c(c7)C(=O)N(C7CCC(=O)NC7=O)C8=O)C6)C5)CC4)ncc3Cl)ccc21 (centres unmarked) [compound 302, 2-{[6-({5-chloro-2-[4-({1′-[2-(2,6-dioxopiperidin-3-yl)-1,3-dioxo-2,3-dihydro-1H-isoindol-5-yl]-[1,3′-biazetidin]-3-yl}methyl)piperazin-1-yl]pyrimidin-4-yl}amino)-1-ethyl-2-oxo-1,2-dihydroquinolin-3-yl]oxy}-N-methylacetamide]"
2,10 to 50,"CNC(=O)COc1cc2cc(Nc3nc(N4CCC(OC5CCN(c6cccc7c6C(=O)N(C6CCC(=O)NC6=O)C7=O)CC5)CC4)ncc3Cl)ccc2n(C(C)C)c1=O (centres unmarked) [compound 293, 2-{[6-({5-chloro-2-[4-({1-[2-(2,6-dioxopiperidin-3-yl)-1,3-dioxo-2,3-dihydro-1H-isoindol-4-yl]piperidin-4-yl}oxy)piperidin-1-yl]pyrimidin-4-yl}amino)-2-oxo-1-(propan-2-yl)-1,2-dihydroquinolin-3-yl]oxy}-N-methylacetamide]"

# Same assay, conditions: T47D
row,Dmax [%],Structure (SMILES)
1,≥ 70,"CC(=O)COc1cc2cc(Nc3nc(N4CCN(C(C)(C)C5CCN(c6ccc7c(c6)C(=O)N(C6CCC(=O)NC6=O)C7=O)CC5)CC4)ncc3Cl)ccc2n(C)c1=O (centres unmarked) [compound 257, 5-(4-(2-(4-(5-chloro-4-((1-methyl-2-oxo-3-(2-oxopropoxy)-1,2-dihydroquinolin-6-yl)amino)pyrimidin-2-yl)piperazin-1-yl)propan-2-yl)piperidin-1-yl)-2-(2,6-dioxopiperidin-3-yl)isoindoline-1,3-dione]"
2,< 50,"CCn1c(=O)c(OCC(=O)NC)cc2cc(Nc3nc(N4CCN(CC5CN(C6CN(c7ccc8c(c7)C(=O)N(C7CCC(=O)NC7=O)C8=O)C6)C5)CC4)ncc3Cl)ccc21 (centres unmarked) [compound 302, 2-{[6-({5-chloro-2-[4-({1′-[2-(2,6-dioxopiperidin-3-yl)-1,3-dioxo-2,3-dihydro-1H-isoindol-5-yl]-[1,3′-biazetidin]-3-yl}methyl)piperazin-1-yl]pyrimidin-4-yl}amino)-1-ethyl-2-oxo-1,2-dihydroquinolin-3-yl]oxy}-N-methylacetamide]"
3,50 to 70,"CNC(=O)COc1cc2cc(Nc3nc(N4CCC(OC5CCN(c6cccc7c6C(=O)N(C6CCC(=O)NC6=O)C7=O)CC5)CC4)ncc3Cl)ccc2n(C(C)C)c1=O (centres unmarked) [compound 293, 2-{[6-({5-chloro-2-[4-({1-[2-(2,6-dioxopiperidin-3-yl)-1,3-dioxo-2,3-dihydro-1H-isoindol-4-yl]piperidin-4-yl}oxy)piperidin-1-yl]pyrimidin-4-yl}amino)-2-oxo-1-(propan-2-yl)-1,2-dihydroquinolin-3-yl]oxy}-N-methylacetamide]"

# Same assay, conditions: T47D cells
IC50 [nM],Dmax [%],Structure (SMILES)
≥ 100,,"CNC(=O)COc1cc2cc(Nc3nc(N4CC5(CC(OC6CCN(c7ccc8c(c7)C(=O)N(C7CCC(=O)NC7=O)C8=O)CC6)C5)C4)ncc3Cl)ccc2n(C(C)C)c1=O (centres unmarked) [compound 405, 2-{[6-({5-chloro-2-[6-({1-[2-(2,6-dioxopiperidin-3-yl)-1,3-dioxo-2,3-dihydro-1H-isoindol-5-yl]piperidin-4-yl}oxy)-2-azaspiro[3.3]heptan-2-yl]pyrimidin-4-yl}amino)-2-oxo-1-(propan-2-yl)-1,2-dihydroquinolin-3-yl]oxy}-N-methylacetamide]"
< 10,50 to 70,"CNC(=O)COc1cc2cc(Nc3nc(N4CCC(CN5CCC(c6cccc7c6C(=O)N(C6CCC(=O)NC6=O)C7=O)CC5)CC4)ncc3Cl)ccc2n(C(C)C)c1=O (centres unmarked) [compound 386, 2-{[6-({5-chloro-2-[4-({4-[2-(2,6-dioxopiperidin-3-yl)-1,3-dioxo-2,3-dihydro-1H-isoindol-4-yl]piperidin-1-yl}methyl)piperidin-1-yl]pyrimidin-4-yl}amino)-2-oxo-1-(propan-2-yl)-1,2-dihydroquinolin-3-yl]oxy}-N-methylacetamide]"
≥ 100,,"CNC(=O)COc1cc2cc(Nc3nc(N4CCN(CC5CCN(C(=O)c6ccc(N7CCC(=O)NC7=O)cc6)CC5)CC4)ncc3Cl)ccc2n(C(C)C)c1=O [compound 402, 2-{[6-({5-chloro-2-[4-({1-[4-(2,4-dioxo-1,3-diazinan-1-yl)benzoyl]piperidin-4-yl}methyl)piperazin-1-yl]pyrimidin-4-yl}amino)-2-oxo-1-(propan-2-yl)-1,2-dihydroquinolin-3-yl]oxy}-N-methylacetamide]"
< 10,≥ 70,"CNC(=O)COc1cc2cc(Nc3nc(N4CC5(CC(OC6CCN(c7cccc8c7C(=O)N(C7CCC(=O)NC7=O)C8=O)CC6)C5)C4)ncc3Cl)ccc2n(C(C)C)c1=O (centres unmarked) [compound 406, 2-{[6-({5-chloro-2-[6-({1-[2-(2,6-dioxopiperidin-3-yl)-1,3-dioxo-2,3-dihydro-1H-isoindol-4-yl]piperidin-4-yl}oxy)-2-azaspiro[3.3]heptan-2-yl]pyrimidin-4-yl}amino)-2-oxo-1-(propan-2-yl)-1,2-dihydroquinolin-3-yl]oxy}-N-methylacetamide]"

# Same assay, conditions: class symbols A-D, read-out: EC50 (nM)*
row,DC50 [nM],Structure (SMILES)
1,> 100,"CNC(=O)COc1cc2cc(Nc3nc(N4CCC(Cc5cn(CCOCCOCCOCCOc6ccc7c(c6)C(=O)N(C6CCC(=O)NC6=O)C7=O)nn5)CC4)ncc3Cl)ccc2n(C)c1=O (centres unmarked) [compound 131, 2-((6-((5-chloro-2-(4-((1-(2-(2-(2-(2-((2-(2,6-dioxopiperidin-3-yl)-1,3-dioxoisoindolin-5-yl)oxy)ethoxy)ethoxy)ethoxy)ethyl)-1H-1,2,3-triazol-4-yl)methyl)piperidin-1-yl)pyrimidin-4-yl)amino)-1-methyl-2-oxo-1,2-dihydroquinolin-3-yl)oxy)-N-methylacetamide]"
2,> 100,"CNC(=O)COc1cc2cc(Nc3nc(N4CCC(OCCOCCOCCOCCOCCOCCOc5cc(-c6scnc6C)ccc5CNC(=O)[C@@H]5C[C@@H](O)CN5C(=O)C(c5cc(C)no5)C(C)C)CC4)ncc3Cl)ccc2n(C)c1=O (stereo partly drawn) [compound 58, (2S,4R)-N-(2-((17-((1-(5-chloro-4-((1-methyl-3-(2-(methylamino)-2-oxoethoxy)-2-oxo-1,2-dihydroquinolin-6-yl)amino)pyrimidin-2-yl)piperidin-4-yl)oxy)-3,6,9,12,15-pentaoxaheptadecyl)oxy)-4-(4-methylthiazol-5-yl)benzyl)-4-hydroxy-1-(3-methyl-2-(3-methylisoxazol-5-yl)butanoyl)pyrrolidine-2-carboxamide]"
3,> 100,"CNC(=O)COc1cc2cc(Nc3nc(N4CCC(c5ccc(OCCCOCCCOCCOc6ccc7c(c6)CN(C6CCC(=O)NC6=O)C7=O)cc5)CC4)ncc3Cl)ccc2n(C)c1=O (centres unmarked) [compound 125, 2-((6-((5-chloro-2-(4-(4-(3-(3-(2-((2-(2,6-dioxopiperidin-3-yl)-1-oxoisoindolin-5-yl)oxy)ethoxy)propoxy)propoxy)phenyl)piperidin-1-yl)pyrimidin-4-yl)amino)-1-methyl-2-oxo-1,2-dihydroquinolin-3-yl)oxy)-N-methylacetamide]"
4,> 100,"CNC(=O)COc1cc2cc(Nc3nc(N4CCC(OCCOCCOCCOCCCOc5ccccc5-c5ccc6c(c5)CN(C5CCC(=O)NC5=O)C6=O)CC4)ncc3Cl)ccc2n(C)c1=O (centres unmarked) [compound 93, 2-((6-((5-chloro-2-(4-(2-(2-(2-(3-(2-(2-(2,6-dioxopiperidin-3-yl)-1-oxoisoindolin-5-yl)phenoxy)propoxy)ethoxy)ethoxy)ethoxy)piperidin-1-yl)pyrimidin-4-yl)amino)-1-methyl-2-oxo-1,2-dihydroquinolin-3-yl)oxy)-N-methylacetamide]"
5,> 100,"CNC(=O)COc1cc2cc(Nc3nc(N4CCC(OCCOCCOCCOc5ccccc5OCCOc5ccc6c(c5)CN(C5CCC(=O)NC5=O)C6=O)CC4)ncc3Cl)ccc2n(C)c1=O (centres unmarked) [compound 110, 2-((6-((5-chloro-2-(4-(2-(2-(2-(2-(2-((2-(2,6-dioxopiperidin-3-yl)-1-oxoisoindolin-5-yl)oxy)ethoxy)phenoxy)ethoxy)ethoxy)ethoxy)piperidin-1-yl)pyrimidin-4-yl)amino)-1-methyl-2-oxo-1,2-dihydroquinolin-3-yl)oxy)-N-methylacetamide]"
6,> 100,"CNC(=O)COc1cc2cc(Nc3nc(N4CCC(OCCOCCOCCOCc5ccc(Oc6ccc7c(c6)CN(C6CCC(=O)NC6=O)C7=O)cc5)CC4)ncc3Cl)ccc2n(C)c1=O (centres unmarked) [compound 135, 2-((6-((5-chloro-2-(4-(2-(2-(2-((4-((2-(2,6-dioxopiperidin-3-yl)-1-oxoisoindolin-5-yl)oxy)benzyl)oxy)ethoxy)ethoxy)ethoxy)piperidin-1-yl)pyrimidin-4-yl)amino)-1-methyl-2-oxo-1,2-dihydroquinolin-3-yl)oxy)-N-methylacetamide]"
7,> 100,"CNC(=O)COc1cc2cc(Nc3nc(N4CCC(OCCOCCOCCOCCNc5cccc6c5C(=O)N(C5CCC(=O)NC5=O)C6=O)CC4)ncc3Cl)ccc2n(C)c1=O (centres unmarked) [compound 66, 2-((6-((5-chloro-2-(4-(2-(2-(2-(2-((2-(2,6-dioxopiperidin-3-yl)-1,3-dioxoisoindolin-4-yl)amino)ethoxy)ethoxy)ethoxy)ethoxy)piperidin-1-yl)pyrimidin-4-yl)amino)-1-methyl-2-oxo-1,2-dihydroquinolin-3-yl)oxy)-N-methylacetamide]"
8,> 100,"CN1C(=O)CCc2cc(Nc3cc(N4CCC(CN5CCN(c6ccc7c(c6)C(=O)N(C6CCC(=O)NC6=O)C7=O)CC5)CC4)c([N+](=O)[O-])cc3Cl)ccc21 (centres unmarked) [compound 77, 5-(4-((1-(4-chloro-5-((1-methyl-2-oxo-1,2,3,4-tetrahydroquinolin-6-yl)amino)-2-nitrophenyl)piperidin-4-yl)methyl)piperazin-1-yl)-2-(2,6-dioxopiperidin-3-yl)isoindoline-1,3-dione]"

row,Structure (SMILES),DC50 [nM]
1,"CN1C(=O)CCc2cc(Nc3cc(N4CCC(CN(C)[C@H]5C[C@H](Oc6ccc7c(c6)C(=O)N(C6CCC(=O)NC6=O)C7=O)C5)CC4)c([N+](=O)[O-])cc3Cl)ccc21 (some centres unmarked) [compound 85, 5-((1r,3r)-3-(((1-(4-chloro-5-((1-methyl-2-oxo-1,2,3,4-tetrahydroquinolin-6-yl)amino)-2-nitrophenyl)piperidin-4-yl)methyl)(methyl)amino)cyclobutoxy)-2-(2,6-dioxopiperidin-3-yl)isoindoline-1,3-dione]",> 100
